In BindingDB's records for patent US9090621 (Principia Biopharma, 2015):

Target: Tyrosine-protein kinase BTK (Homo sapiens, UniProt Q06187)
Assay: Enzymatic Activity Assay
Conditions: 25 °C
Procedure: A Caliper-based kinase assay (Caliper Life Sciences, Hopkinton, Mass.) was used to measure inhibition of Btk kinase activity of a compound of Formula (IA), (I′) or (I). […] The reaction was then terminated with EDTA, final concentration 20 mM and the phosphorylated reaction product was quantified on a Caliper Desktop Profiler (Caliper LabChip 3000).

Chain of Tyrosine-protein kinase BTK (Q06187 whole entry): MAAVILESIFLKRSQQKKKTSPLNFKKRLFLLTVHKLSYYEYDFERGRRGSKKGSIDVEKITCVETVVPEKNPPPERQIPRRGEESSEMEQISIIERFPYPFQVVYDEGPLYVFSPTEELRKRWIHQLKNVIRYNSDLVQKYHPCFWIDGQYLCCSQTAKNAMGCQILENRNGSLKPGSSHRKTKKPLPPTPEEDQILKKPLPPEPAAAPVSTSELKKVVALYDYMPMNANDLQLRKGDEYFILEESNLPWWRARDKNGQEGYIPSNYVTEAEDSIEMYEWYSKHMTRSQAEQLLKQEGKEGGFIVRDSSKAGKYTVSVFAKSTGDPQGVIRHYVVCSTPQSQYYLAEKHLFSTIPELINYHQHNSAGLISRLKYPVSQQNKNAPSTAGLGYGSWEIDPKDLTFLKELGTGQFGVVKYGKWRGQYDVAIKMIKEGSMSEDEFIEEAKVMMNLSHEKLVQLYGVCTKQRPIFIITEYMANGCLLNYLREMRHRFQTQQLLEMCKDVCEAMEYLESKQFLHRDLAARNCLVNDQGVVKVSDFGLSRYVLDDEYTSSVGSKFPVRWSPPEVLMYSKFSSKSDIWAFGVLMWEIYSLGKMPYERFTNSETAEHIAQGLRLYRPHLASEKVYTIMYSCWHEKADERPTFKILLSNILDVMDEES

COc1cc(-c2nn(C3CCCN(C(=O)C(C#N)=CC4CC4)C3)c3ncnc(N)c23)ccc1Oc1ccc(Cl)c(Cl)c1 (stereo unspecified) [US9090621, 5]
IC50: 1 nM
